Test results taken from patent US12157741B2, “Macrocyclic inhibitors of DYRK1A” (DANA-FARBER CANCER INSTITUTE, INC., priority 2018, dated 2024).
Read-outs that look alike come from different tables or passages of the source.

Tests used:
Format in all cases: binding
various enzymes [1] = biological target: various enzymes (Homo sapiens, UniProt P00519, Y253F)
Description: (§1) Ambit profiling was conducted in accordance with the manufacturer's instructions.

various enzymes [2] = biological target: various enzymes (Homo sapiens, UniProt Q9H4B4); conditions: compound 1 uM
Description: as §1

various enzymes [3] = biological target: various enzymes (Homo sapiens, UniProt P49674); conditions: compound 1 uM
various enzymes (Homo sapiens, UniProt P49674), sequence (P49674 whole entry): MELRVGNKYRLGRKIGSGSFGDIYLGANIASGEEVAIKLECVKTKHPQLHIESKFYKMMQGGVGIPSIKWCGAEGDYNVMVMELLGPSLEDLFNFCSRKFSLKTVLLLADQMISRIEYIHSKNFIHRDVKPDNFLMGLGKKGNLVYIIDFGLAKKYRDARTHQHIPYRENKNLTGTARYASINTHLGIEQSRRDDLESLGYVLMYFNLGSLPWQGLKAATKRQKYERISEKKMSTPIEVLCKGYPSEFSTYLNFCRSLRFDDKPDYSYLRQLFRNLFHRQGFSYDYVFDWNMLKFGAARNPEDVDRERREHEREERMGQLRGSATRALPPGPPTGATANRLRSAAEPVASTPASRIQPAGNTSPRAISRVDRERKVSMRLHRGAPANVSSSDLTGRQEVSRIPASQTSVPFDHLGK
Description: as §1

various enzymes [4] = biological target: various enzymes (Homo sapiens, UniProt Q8NEB9); conditions: compound 1 uM
Description: as §1

various enzymes [5] = biological target: various enzymes (Homo sapiens, UniProt P42680); conditions: compound 1 uM
various enzymes (Homo sapiens, UniProt P42680), sequence (P42680 whole entry): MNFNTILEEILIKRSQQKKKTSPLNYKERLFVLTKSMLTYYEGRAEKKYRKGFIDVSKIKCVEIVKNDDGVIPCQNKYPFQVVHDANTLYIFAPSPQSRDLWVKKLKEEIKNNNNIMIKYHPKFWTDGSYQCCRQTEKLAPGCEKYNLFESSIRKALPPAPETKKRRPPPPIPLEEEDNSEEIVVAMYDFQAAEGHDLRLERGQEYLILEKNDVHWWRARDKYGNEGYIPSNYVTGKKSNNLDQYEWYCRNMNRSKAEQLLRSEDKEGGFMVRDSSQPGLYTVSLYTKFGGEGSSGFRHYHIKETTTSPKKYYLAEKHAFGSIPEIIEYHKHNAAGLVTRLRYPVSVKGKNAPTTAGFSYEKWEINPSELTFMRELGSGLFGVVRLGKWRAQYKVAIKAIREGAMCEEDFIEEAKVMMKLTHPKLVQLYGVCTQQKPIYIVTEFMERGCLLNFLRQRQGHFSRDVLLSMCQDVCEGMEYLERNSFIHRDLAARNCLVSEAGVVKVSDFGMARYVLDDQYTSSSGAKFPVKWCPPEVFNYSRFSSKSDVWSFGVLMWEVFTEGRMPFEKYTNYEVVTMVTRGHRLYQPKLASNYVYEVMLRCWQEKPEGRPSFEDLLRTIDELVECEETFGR
Description: as §1

various enzymes [6] = biological target: various enzymes (Homo sapiens, UniProt P10721, L576P)
various enzymes (Homo sapiens, UniProt P10721, L576P), sequence (P10721 26-976 L576P): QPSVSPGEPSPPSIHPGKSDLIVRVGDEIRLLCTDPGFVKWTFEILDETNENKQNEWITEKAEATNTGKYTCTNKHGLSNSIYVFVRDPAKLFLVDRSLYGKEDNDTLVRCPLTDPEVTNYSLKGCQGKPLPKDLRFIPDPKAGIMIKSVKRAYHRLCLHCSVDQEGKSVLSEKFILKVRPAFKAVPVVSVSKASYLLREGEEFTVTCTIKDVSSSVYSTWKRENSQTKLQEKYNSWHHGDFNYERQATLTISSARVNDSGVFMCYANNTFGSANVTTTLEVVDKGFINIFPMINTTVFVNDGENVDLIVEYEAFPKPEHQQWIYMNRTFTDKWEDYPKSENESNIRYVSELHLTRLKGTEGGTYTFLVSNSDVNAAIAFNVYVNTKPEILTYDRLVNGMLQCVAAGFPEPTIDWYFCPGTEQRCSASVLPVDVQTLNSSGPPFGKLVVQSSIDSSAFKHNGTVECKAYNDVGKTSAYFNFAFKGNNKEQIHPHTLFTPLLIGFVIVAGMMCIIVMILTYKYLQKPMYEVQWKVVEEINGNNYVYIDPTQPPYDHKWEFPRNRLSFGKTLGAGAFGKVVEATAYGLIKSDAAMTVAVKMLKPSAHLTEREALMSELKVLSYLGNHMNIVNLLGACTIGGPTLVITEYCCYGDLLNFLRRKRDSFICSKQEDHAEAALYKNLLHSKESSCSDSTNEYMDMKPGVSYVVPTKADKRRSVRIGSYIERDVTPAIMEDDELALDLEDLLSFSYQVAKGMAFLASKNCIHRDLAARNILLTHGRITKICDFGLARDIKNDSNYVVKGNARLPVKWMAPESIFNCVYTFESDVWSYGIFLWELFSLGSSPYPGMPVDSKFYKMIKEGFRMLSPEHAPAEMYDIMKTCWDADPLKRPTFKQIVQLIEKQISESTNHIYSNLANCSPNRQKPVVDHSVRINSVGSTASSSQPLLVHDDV
Description: as §1

various enzymes [7] = biological target: various enzymes (Homo sapiens, UniProt P10721, V559D)
various enzymes (Homo sapiens, UniProt P10721, V559D), sequence (P10721 26-976 V559D): as the sequence (P10721 26-976 L576P) above, with V534D, P551L counted along it
Description: as §1

various enzymes [8] = biological target: various enzymes (Homo sapiens, UniProt P50750); conditions: compound 1 uM
various enzymes (Homo sapiens, UniProt P50750), sequence (P50750 whole entry): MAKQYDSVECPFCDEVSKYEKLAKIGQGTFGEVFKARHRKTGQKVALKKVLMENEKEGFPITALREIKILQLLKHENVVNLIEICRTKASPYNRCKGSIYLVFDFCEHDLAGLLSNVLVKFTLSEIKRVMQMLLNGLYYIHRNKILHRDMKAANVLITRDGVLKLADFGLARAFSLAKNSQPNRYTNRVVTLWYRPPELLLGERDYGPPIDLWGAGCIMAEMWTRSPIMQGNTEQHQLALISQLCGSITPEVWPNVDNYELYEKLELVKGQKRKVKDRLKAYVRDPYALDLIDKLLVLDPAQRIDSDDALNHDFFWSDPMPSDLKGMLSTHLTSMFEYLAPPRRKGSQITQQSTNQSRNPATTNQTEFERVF
Description: as §1

various enzymes [9] = biological target: various enzymes (Homo sapiens, UniProt P19784); conditions: compound 1 uM
various enzymes (Homo sapiens, UniProt P19784), sequence (P19784 whole entry): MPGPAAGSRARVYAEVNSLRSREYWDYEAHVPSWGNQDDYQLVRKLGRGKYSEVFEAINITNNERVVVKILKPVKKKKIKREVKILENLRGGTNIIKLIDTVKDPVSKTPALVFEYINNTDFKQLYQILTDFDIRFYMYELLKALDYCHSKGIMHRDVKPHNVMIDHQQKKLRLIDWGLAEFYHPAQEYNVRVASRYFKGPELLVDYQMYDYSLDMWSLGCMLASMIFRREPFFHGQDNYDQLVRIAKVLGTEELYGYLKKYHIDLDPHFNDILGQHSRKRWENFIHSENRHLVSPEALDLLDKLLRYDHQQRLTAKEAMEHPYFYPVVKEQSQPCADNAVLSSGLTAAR
Description: as §1

various enzymes [10] = biological target: various enzymes (Homo sapiens, UniProt P45983); conditions: compound 1 uM
various enzymes (Homo sapiens, UniProt P45983), sequence (P45983 whole entry): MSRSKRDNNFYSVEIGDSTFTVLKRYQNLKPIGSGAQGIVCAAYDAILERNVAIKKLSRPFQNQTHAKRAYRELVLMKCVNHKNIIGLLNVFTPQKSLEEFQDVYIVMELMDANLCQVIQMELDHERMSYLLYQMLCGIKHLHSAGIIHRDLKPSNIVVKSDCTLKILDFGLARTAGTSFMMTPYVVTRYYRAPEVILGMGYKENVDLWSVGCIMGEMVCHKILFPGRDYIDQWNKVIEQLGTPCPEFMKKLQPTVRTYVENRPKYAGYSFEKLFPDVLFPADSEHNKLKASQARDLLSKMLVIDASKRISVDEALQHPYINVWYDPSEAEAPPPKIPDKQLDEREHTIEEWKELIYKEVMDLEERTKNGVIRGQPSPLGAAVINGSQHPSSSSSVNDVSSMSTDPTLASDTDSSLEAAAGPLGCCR
Description: as §1

various enzymes [11] = biological target: T1, various enzymes (Homo sapiens, UniProt Q13873); conditions: compound 1 uM
T1 sequence (Q13873 27-1038): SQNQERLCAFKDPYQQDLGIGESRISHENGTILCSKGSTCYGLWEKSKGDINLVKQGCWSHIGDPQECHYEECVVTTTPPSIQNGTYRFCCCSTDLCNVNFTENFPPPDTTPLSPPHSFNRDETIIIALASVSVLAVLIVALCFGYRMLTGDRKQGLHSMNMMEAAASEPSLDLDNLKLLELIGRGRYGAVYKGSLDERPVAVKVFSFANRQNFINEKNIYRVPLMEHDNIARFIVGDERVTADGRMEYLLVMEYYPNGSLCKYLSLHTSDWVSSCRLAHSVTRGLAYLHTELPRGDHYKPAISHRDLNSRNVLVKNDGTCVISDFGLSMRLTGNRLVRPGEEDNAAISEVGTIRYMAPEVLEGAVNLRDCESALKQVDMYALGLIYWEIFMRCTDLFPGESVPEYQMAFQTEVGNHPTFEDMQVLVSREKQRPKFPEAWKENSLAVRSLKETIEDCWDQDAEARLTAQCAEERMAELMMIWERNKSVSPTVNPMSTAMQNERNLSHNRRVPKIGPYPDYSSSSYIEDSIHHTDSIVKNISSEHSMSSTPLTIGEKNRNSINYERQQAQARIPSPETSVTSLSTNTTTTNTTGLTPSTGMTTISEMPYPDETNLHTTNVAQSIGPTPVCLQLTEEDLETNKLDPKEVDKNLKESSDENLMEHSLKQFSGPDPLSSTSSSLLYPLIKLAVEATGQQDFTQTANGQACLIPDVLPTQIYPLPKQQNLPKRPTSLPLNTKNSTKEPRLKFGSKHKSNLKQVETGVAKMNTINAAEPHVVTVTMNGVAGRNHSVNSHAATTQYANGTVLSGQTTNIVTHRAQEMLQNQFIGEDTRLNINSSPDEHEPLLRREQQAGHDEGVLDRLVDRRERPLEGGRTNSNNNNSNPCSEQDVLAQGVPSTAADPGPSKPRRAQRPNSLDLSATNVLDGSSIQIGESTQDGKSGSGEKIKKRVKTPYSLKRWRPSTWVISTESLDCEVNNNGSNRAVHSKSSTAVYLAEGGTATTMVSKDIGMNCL
Description: as §1

various enzymes [12] = biological target: various enzymes (Homo sapiens, UniProt P00533, DEL746-750); conditions: compound 1 uM
Description: as §1

various enzymes [13] = biological target: various enzymes (Homo sapiens, UniProt P29320); conditions: compound 1 uM
Description: as §1

various enzymes [14] = biological target: various enzymes (Homo sapiens, UniProt P11362); conditions: compound 1 uM
Description: as §1

various enzymes [15] = biological target: various enzymes (Homo sapiens, UniProt P42681); conditions: compound 1 uM
Description: as §1

various enzymes [16] = biological target: various enzymes (Homo sapiens, UniProt Q08345); conditions: compound 1 uM
Description: as §1

various enzymes [17] = biological target: various enzymes (Homo sapiens, UniProt Q13976); conditions: compound 1 uM
Description: as §1

various enzymes [18] = biological target: T2, various enzymes (Homo sapiens, UniProt Q9H093); conditions: compound 1 uM
T2 sequence (Q9H093 1-628): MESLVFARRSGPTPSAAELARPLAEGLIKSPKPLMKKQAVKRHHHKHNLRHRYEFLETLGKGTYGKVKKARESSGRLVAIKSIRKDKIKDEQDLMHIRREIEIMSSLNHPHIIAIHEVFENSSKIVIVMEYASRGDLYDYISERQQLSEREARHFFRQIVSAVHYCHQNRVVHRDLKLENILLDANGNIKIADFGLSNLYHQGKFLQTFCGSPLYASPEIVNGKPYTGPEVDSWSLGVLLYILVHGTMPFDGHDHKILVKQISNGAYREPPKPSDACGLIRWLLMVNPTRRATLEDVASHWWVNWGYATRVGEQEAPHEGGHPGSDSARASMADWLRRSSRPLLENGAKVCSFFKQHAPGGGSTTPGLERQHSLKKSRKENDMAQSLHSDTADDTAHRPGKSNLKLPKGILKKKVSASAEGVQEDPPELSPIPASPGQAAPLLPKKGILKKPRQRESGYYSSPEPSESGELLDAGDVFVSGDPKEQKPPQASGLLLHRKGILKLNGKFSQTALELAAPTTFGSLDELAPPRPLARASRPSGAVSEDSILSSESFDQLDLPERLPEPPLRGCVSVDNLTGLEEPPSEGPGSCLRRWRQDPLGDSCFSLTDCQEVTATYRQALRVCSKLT
Description: as §1

various enzymes [19] = biological target: various enzymes (Homo sapiens, UniProt Q9Y2U5); conditions: compound 1 uM
Description: as §1

various enzymes [20] = biological target: various enzymes (Homo sapiens, UniProt P00533, L858R/T790M)
Description: as §1

various enzymes [21] = biological target: various enzymes (Homo sapiens, UniProt Q16584); conditions: compound 1 uM
various enzymes (Homo sapiens, UniProt Q16584), sequence (Q16584 whole entry): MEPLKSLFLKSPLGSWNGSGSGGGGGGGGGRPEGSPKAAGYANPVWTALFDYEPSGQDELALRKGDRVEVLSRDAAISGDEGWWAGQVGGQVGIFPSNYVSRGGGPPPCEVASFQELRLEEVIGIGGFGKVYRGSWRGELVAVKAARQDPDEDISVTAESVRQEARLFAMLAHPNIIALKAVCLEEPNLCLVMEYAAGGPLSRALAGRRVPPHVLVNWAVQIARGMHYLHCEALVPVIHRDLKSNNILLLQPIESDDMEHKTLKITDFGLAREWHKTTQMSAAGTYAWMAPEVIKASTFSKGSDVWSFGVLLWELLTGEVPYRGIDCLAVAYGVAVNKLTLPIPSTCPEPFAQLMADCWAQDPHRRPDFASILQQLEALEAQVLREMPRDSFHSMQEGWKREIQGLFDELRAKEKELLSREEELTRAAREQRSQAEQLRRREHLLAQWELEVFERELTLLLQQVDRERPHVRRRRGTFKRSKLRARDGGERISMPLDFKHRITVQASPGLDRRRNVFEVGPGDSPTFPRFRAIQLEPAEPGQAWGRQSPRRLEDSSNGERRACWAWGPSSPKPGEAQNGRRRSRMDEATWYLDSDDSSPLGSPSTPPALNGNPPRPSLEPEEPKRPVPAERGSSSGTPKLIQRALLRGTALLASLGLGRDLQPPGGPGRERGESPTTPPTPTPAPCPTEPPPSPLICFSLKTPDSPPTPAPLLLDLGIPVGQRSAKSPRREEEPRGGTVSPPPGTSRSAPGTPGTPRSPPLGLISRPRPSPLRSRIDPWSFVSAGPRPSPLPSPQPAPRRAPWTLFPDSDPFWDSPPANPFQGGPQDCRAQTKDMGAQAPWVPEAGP
Description: as §1

various enzymes [22] = biological target: various enzymes (Homo sapiens, UniProt Q9HBH9); conditions: compound 1 uM
various enzymes (Homo sapiens, UniProt Q9HBH9), sequence (Q9HBH9 whole entry): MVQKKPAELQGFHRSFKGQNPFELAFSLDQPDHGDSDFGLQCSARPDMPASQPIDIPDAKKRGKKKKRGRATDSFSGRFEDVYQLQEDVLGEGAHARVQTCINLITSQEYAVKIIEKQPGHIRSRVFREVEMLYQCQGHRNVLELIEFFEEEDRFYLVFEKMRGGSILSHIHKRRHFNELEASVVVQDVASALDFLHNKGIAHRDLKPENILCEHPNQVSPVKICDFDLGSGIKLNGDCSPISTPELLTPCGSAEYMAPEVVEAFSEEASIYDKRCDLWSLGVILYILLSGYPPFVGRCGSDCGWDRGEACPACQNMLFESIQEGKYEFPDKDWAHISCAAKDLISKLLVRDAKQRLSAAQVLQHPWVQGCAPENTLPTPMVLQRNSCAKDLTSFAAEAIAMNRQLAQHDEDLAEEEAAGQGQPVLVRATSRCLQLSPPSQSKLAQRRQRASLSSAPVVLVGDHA
Description: as §1

Row | Compound | Ambit profiling: PLK3 (various enzymes [2]) | Ambit profiling: CSNK1E (various enzymes [3]) | Ambit profiling: VPS34 (various enzymes [4]) | Ambit profiling: TEC (various enzymes [5]) | Ambit profiling: CDK9 (various enzymes [8]) | Ambit profiling: CSNK2A2 (various enzymes [9]) | Ambit profiling: JNK1 (various enzymes [10]) | Ambit profiling: BMPR2 (various enzymes [11]) | Ambit profiling: EGFR(E746-A750del) (various enzymes [12]) | Ambit profiling: EPHA3 (various enzymes [13]) | Ambit profiling: FGFR1 (various enzymes [14]) | Ambit profiling: TXK (various enzymes [15]) | Ambit profiling: DDR1 (various enzymes [16]) | Ambit profiling: PRKG1 (various enzymes [17]) | Ambit profiling: SNARK (various enzymes [18]) | Ambit profiling: MAP3K2 (various enzymes [19]) | Ambit profiling: MLK3 (various enzymes [21]) | Ambit profiling: MKNK2 (various enzymes [22]) | other results
1 | CC(C)N1Cc2nn(C)cc2-c2cnc3[nH]cc(c3c2)-c2cn(nc2C(F)(F)F)CCCC1=O [Compound 45, (Z)-5-isopropyl-31-methyl-13-(trifluoromethyl)-11H,21H,31H-5-aza-2(3,5)-pyrrolo[2,3-b]pyridina-1(4,1),3(4,3)-dipyrazolacyclononaphan-6-one] | 95 | 23 | 100 | 97 | 60 | 1.8 | 18 | 78 | 6.4 | 32 | 2.5 | 15 | 0.15 | 100 | 14 | 0.45 | 28 | 100 | Ambit profiling: ABL1(V253F)-phosphorylated (various enzymes [1]; compound 1 uM): 76; Ambit profiling: KIT(L576P) (various enzymes [6]; compound 1 uM): 4.5; Ambit profiling: KIT(V559D) (various enzymes [7]; compound 1 uM): 3.2; Ambit profiling: EGFR(L858R, T790M) (various enzymes [20]; compound 1 uM): 27
2 | COc1c2c(nn1C)CN(C(C)C)C(=O)CCCn1cc(c(C(F)(F)F)n1)-c1c[nH]c3ncc-2cc13 [Compound 50, (Z)-5-isopropyl-35-methoxy-31-methyl-13-(trifluoromethyl)-11H,21H,31H-5-aza-2(3,5)-pyrrolo[2,3-b]pyridina-1(4,1),3(4,3)-dipyrazolacyclononaphan-6-one] | 77 | 13 | 83 | 32 | 47 | 8.7 | 4.1 | 89 | 5.9 | 45 | 5.8 | 3.2 | 0.35 | 100 | 47 | 0.5 | 11 | 53 | Ambit profiling: ABL1(Y253F)-phosphorylated (various enzymes [1]): 10; Ambit profiling: KIT(L576P) (various enzymes [6]): 4; Ambit profiling: KIT(V559D) (various enzymes [7]): 0.95; Ambit profiling: EGFR(L858R, T790M) (various enzymes [20]): 19
